Results on 4 compounds are retold here after patent US6800645B1, “Substituted azabicyclic compounds” (Aventis Pharma Limited, priority 1996, dated 2004).

With `COCc1nc2c(OC)ccc(C(=O)Cc3ccncc3)c2[nH]1` [Example 4, 1-(7-Methoxy-2-methoxymethyl-3H-benzimidazol-4-yl)-2-(4-pyridyl)ethanone], the melting point was 218 to 220 °C (dec.).

As for `COCc1nc2c(OC)ccc(C(O)(Cc3ccncc3)Cc3ccncc3)c2[nH]1` [Example 5, 1,3-bis-(4-pyridyl)-2-(7-methoxy-2-methoxymethyl-3H-benzimidazol-4-yl)-propan-2-ol], the melting point was 210 °C (dec.).

Regarding `Cc1ccc(S(=O)(=O)n2cc(C=O)c3ccc(C(=O)Nc4c(Cl)cncc4Cl)cc32)cc1` [Example 17, N-(3,5-Dichloro-pyridin-4-yl)-3-formyl-1-(toluene-4-sulphonyl)-1H-indole-6-carboxamide], the melting point amounted to 245 °C.

The compound `COc1ccc(Cn2cc(C)c3ccc(C(=O)c4ccccc4)cc32)cc1` [Example 24, [1-(4-Methoxy-benzyl)-3-methyl-1H-indol-6-yl]-phenyl methanone] gave a melting point of 146 to 147 °C.

Usually melting point stands for the temperature, or range, at which the solid turns liquid.
